Assay results reported in article PMC9116245, “New 1,2,3-triazole linked ciprofloxacin-chalcones induce DNA damage by inhibiting human topoisomerase I& II and tubulin polymerization” (Journal of Enzyme Inhibition and Medicinal Chemistry, 2022).

Key:
[1] = tested on: 59 human cancer cell lines; experiment: NCI one-dose screen, whole panel; type: cell-based; details: Homo sapiens, mean over the panel, read-out: Mean Growth Percent
Experimental: (§1) For screening of anticancer properties, all the developed compounds were chosen by the (NCI) for in-vitro antitumor evaluation. The assay was carried out using 59 human cancer cell lines obtained from nine tumour subpanels (breast, ovarian, melanoma, leukaemia, renal, CNS, lung, prostate, and colon cancer cell lines). Compounds were assessed at a 10 µM concentration. […] Also, hybrids 4a, 4b, 4e, 4i and 4j produced significant anti-proliferative effect in several cancer cells, particularly in leukaemia (RPMI-8226) and colon (HCT116) cells with growth percent of 47.87, −14.59, −24.56, −24.42, −15.84, −9.74, −53.36, −10.26, −31.29, and −39.51%, respectively.
(§2) The method description for NCI anticancer screening is provided in detail in the standard NCI-60 testing protocol.

A549/ATCC = experiment: NCI one-dose screen; type: cell-based; details: Homo sapiens, read-out: Growth Percent
Experimental: as §1, §2

HOP-62 = experiment: NCI one-dose screen; type: cell-based; details: Homo sapiens; HOP-62, 10 µM; read-out: Growth Percent
Experimental: as §1, §2

SK-OV-3 = experiment: NCI one-dose screen; type: cell-based; details: Homo sapiens; SK-OV-3, 10 µM; read-out: Growth Percent
Experimental: as §1, §2

M14 = experiment: NCI one-dose screen; type: cell-based; details: Homo sapiens; M14, 10 µM; read-out: Growth Percent
Experimental: as §1, §2

MOLT-4 = experiment: NCI one-dose screen; type: cell-based; details: Homo sapiens; MOLT-4, 10 µM; read-out: Growth Percent
Experimental: as §1, §2

CAKI-1 = experiment: NCI one-dose screen; type: cell-based; details: Homo sapiens; CAKI-1, 10 µM; read-out: Growth Percent
Experimental: as §1, §2

ACHN = experiment: NCI one-dose screen; type: cell-based; details: Homo sapiens, read-out: Growth Percent
Experimental: as §1, §2

MDA-MB-231/ATCC = experiment: NCI one-dose screen; type: cell-based; details: Homo sapiens, read-out: Growth Percent
Experimental: as §1, §2

MCF7 = experiment: NCI one-dose screen; type: cell-based; details: Homo sapiens; MCF7, 10 µM; read-out: Growth Percent
Experimental: as §1, §2

BT-549 = experiment: NCI one-dose screen; type: cell-based; details: Homo sapiens; BT-549, 10 µM; read-out: Growth Percent
Experimental: as §1, §2

SF-539 = experiment: NCI one-dose screen; type: cell-based; details: Homo sapiens; SF-539, 10 µM; read-out: Growth Percent
Experimental: as §1, §2

T-47D = experiment: NCI one-dose screen; type: cell-based; details: Homo sapiens, T47D, read-out: Growth Percent
Experimental: as §1, §2

HCT-15 = experiment: NCI one-dose screen; type: cell-based; details: Homo sapiens; HCT-15, 10 µM; read-out: Growth Percent
Experimental: as §1, §2

KM12 = experiment: NCI one-dose screen; type: cell-based; details: Homo sapiens; KM12, 10 µM; read-out: Growth Percent
Experimental: as §1, §2

SNB-75 = experiment: NCI one-dose screen; type: cell-based; details: Homo sapiens; SNB-75, 10 µM; read-out: Growth Percent
Experimental: as §1, §2

SF-295 = experiment: NCI one-dose screen; type: cell-based; details: Homo sapiens; SF-295, 10 µM; read-out: Growth Percent
Experimental: as §1, §2

CCRF-CEM = experiment: NCI one-dose screen; type: cell-based; details: Homo sapiens, read-out: Growth Percent
Experimental: as §1, §2

OVCAR-3 = experiment: NCI one-dose screen; type: cell-based; details: Homo sapiens; OVCAR-3, 10 µM; read-out: Growth Percent
Experimental: as §1, §2

HOP-92 = experiment: NCI one-dose screen; type: cell-based; details: Homo sapiens; HOP-92, 10 µM; read-out: Growth Percent
Experimental: as §1, §2

SK-MEL-5 = experiment: NCI one-dose screen; type: cell-based; details: Homo sapiens; SK-MEL-5, 10 µM; read-out: Growth Percent
Experimental: as §1, §2

TK-10 = experiment: NCI one-dose screen; type: cell-based; details: Homo sapiens; TK-10, 10 µM; read-out: Growth Percent
Experimental: as §1, §2

NCI/ADR-RES = experiment: NCI one-dose screen; type: cell-based; details: Homo sapiens, read-out: Growth Percent
Experimental: as §1, §2

UO-31 = experiment: NCI one-dose screen; type: cell-based; details: Homo sapiens; UO-31, 10 µM; read-out: Growth Percent
Experimental: as §1, §2

SR = experiment: NCI one-dose screen; type: cell-based; details: Homo sapiens, read-out: Growth Percent
Experimental: as §1, §2

NCI-H460 = experiment: NCI one-dose screen; type: cell-based; details: Homo sapiens; NCI-H460, 10 µM; read-out: Growth Percent
Experimental: as §1, §2

SK-MEL-2 = experiment: NCI one-dose screen; type: cell-based; details: Homo sapiens; SK-MEL-2, 10 µM; read-out: Growth Percent
Experimental: as §1, §2

IGROV1 = experiment: NCI one-dose screen; type: cell-based; details: Homo sapiens, IGROV-1; IGROV1, 10 µM; read-out: Growth Percent
Experimental: as §1, §2

NCI-H226 = experiment: NCI one-dose screen; type: cell-based; details: Homo sapiens; NCI-H226, 10 µM; read-out: Growth Percent
Experimental: as §1, §2

SK-MEL-28 = experiment: NCI one-dose screen; type: cell-based; details: Homo sapiens; SK-MEL-28, 10 µM; read-out: Growth Percent
Experimental: as §1, §2

MALME-3M = experiment: NCI one-dose screen; type: cell-based; details: Homo sapiens, read-out: Growth Percent
Experimental: as §1, §2

HCT-116 = experiment: NCI one-dose screen; type: cell-based, human; details: Homo sapiens; HCT-116, 10 µM; read-out: Growth Percent
Experimental: as §1, §2

RPMI-8226 = experiment: NCI one-dose screen; type: cell-based, human; details: Homo sapiens; RPMI-8226, 10 µM; read-out: Growth Percent
Experimental: as §1, §2

HT-29 = experiment: MTT assay; type: cell-based; details: Homo sapiens; HT-29, MTT assay, 24 h incubation
Experimental: (§3) The proliferation of colorectal cancer cells (HCT116, HT29 and Caco-2) was assessed using MTT assay as previously reported. Cells were treated with increasing concentrations of 1, 5, 10, 20, 40, 80 or 100 µM of CP hybrids 4a-j, doxorubicin, or DMSO. See Supplementary Appendix A.

Caco-2 = experiment: MTT assay; type: cell-based; details: Homo sapiens; Caco-2, MTT assay, 24 h incubation
Experimental: as §3

HCT116 = experiment: MTT assay; type: cell-based; details: Homo sapiens, HCT-116, 24 h incubation
Experimental: as §3

SMILES | activity at 10 µM [1] | activity at 10 µM (A549/ATCC) | activity at 10 µM (HOP-62) | activity at 10 µM (SK-OV-3) | activity at 10 µM (M14) | activity at 10 µM (MOLT-4) | activity at 10 µM (CAKI-1) | activity at 10 µM (ACHN) | activity at 10 µM (MDA-MB-231/ATCC) | activity at 10 µM (MCF7) | activity at 10 µM (BT-549) | activity at 10 µM (SF-539) | activity at 10 µM (T-47D) | activity at 10 µM (HCT-15) | activity at 10 µM (KM12) | activity at 10 µM (SNB-75) | activity at 10 µM (SF-295) | activity at 10 µM (CCRF-CEM) | activity at 10 µM (OVCAR-3) | activity at 10 µM (HOP-92) | other results
O=C(/C=C/c1ccc(Cl)cc1)c1ccc(-n2cc(CN3CCN(c4cc5c(cc4F)c(=O)c(C(=O)O)cn5C4CC4)CC3)nn2)cc1 [Compound 4c, (E)-7-(4-((1-(4-(3-(4-chlorophenyl)acryloyl)phenyl)-1H-1,2,3-triazol-4-yl)methyl)piperazin-1-yl)-1-cyclopropyl-6-fluoro-4-oxo-1,4-dihydroquinoline-3-carboxylic acid] | 73.9% | 88.9% | 79.6% | 80% | 84.4% | 84.1% | 61.4% | 93.5% | 89.4% | 58.2% | 76.7% | 69% | 92.9% | 91.6% | 73.7% | 72.3% | 91.7% | 64.9% | 91.5% | 79.6% | activity at 10 µM (SK-MEL-5): 77.6%; activity at 10 µM (TK-10): 83.3%; activity at 10 µM (NCI/ADR-RES): 87%; activity at 10 µM (UO-31): 62.5%; activity at 10 µM (SR): 24.1%; activity at 10 µM (NCI-H460): 76.1%; activity at 10 µM (SK-MEL-2): 96.8%; activity at 10 µM (IGROV1): 84%; activity at 10 µM (NCI-H226): 73%; activity at 10 µM (SK-MEL-28): 88.2%; activity at 10 µM (MALME-3M): 91.2%; activity at 10 µM (HCT-116): 6.95%; activity at 10 µM (RPMI-8226): -0.51%; IC50 (HT-29): 15.3 ± 1.54 µM; IC50 (Caco-2): 11.7 ± 2.95 µM; IC50 (HCT116): 6.45 ± 1.84 µM
COc1ccc(/C=C/C(=O)c2ccc(-n3cc(CN4CCN(c5cc6c(cc5F)c(=O)c(C(=O)O)cn6C5CC5)CC4)nn3)cc2)cc1 [Compound 4g, (E)-1-Cyclopropyl-6-fluoro-7-(4-((1-(4-(3-(4-methoxyphenyl)acryloyl)phenyl)-1H-1,2,3-triazol-4-yl)methyl)piperazin-1-yl)-4-oxo-1,4-dihydroquinoline-3-carboxylic acid] | 78.8% | 89% | 85.5% | 84.6% | 88.7% | 81.7% | 75.5% | 89.9% | 88.1% | 51.2% | 90% | 92.8% | 93.4% | 95.8% | 86.4% | 91.6% | 90.7% | 74.6% | 90.5% | 84.8% | activity at 10 µM (SK-MEL-5): 81.6%; activity at 10 µM (TK-10): 92.4%; activity at 10 µM (NCI/ADR-RES): 94.8%; activity at 10 µM (UO-31): 65.1%; activity at 10 µM (SR): 13.1%; activity at 10 µM (NCI-H460): 82.2%; activity at 10 µM (SK-MEL-2): 99.1%; activity at 10 µM (IGROV1): 59%; activity at 10 µM (NCI-H226): 76.3%; activity at 10 µM (SK-MEL-28): 85.3%; activity at 10 µM (MALME-3M): 84.8%; activity at 10 µM (HCT-116): 2.68%; activity at 10 µM (RPMI-8226): 11.5%; IC50 (HT-29): 34 ± 3.69 µM; IC50 (Caco-2): 11.4 ± 3.19 µM; IC50 (HCT116): 6.11 ± 1.03 µM
